The text below walks through data of paper PMC10094921, “A Lipidated Single-B-Chain Derivative of Relaxin Exhibits Improved In Vitro Serum Stability without Altering Activity” (International Journal of Molecular Sciences, 2023).

Starred links: 1 amine or outer side, 2 acyl side, 3 side chain; linkers in the order of their positions; H or OH if unused. Non-standard residues stand in square brackets, D forms with d. Residues, ends and D or L forms follow the SMILES beside them. Groups on a side chain read outwards from the residue. *: point of attachment. PEG12 = NCCOCCOCCOCCOCCOCCOCCOCCOCCOCCOCCOCCOCCC(=O)O; γGlu = O=C(O)[C@H](CCC(=O)[*:2])N[*:1]; PEG6 = NCCOCCOCCOCCOCCOCCOCCC(=O)O; Palmitoyl = CCCCCCCCCCCCCCCC(=O)* Some results are limits rather than exact numbers.

A word on the half-life: it is the time needed for the level to fall by half in the phase considered.

For data set [1], the target named is T1, 7BP protein (RXFP1 extracellular domain attached with a single TM domain) (Homo sapiens, UniProt Q9HBX9).
T1 construct: RXFP1 extracellular domain attached with a single TM domain instead of the native 7 TM domain; single transmembrane domain replacing the native 7 TM domain (heterologous); expressed in transfected cells; host or cells: HEK-293T cells stably expressing 7BP (HEK-7BP)
T1 sequence (Q9HBX9 1-409 limits assumed): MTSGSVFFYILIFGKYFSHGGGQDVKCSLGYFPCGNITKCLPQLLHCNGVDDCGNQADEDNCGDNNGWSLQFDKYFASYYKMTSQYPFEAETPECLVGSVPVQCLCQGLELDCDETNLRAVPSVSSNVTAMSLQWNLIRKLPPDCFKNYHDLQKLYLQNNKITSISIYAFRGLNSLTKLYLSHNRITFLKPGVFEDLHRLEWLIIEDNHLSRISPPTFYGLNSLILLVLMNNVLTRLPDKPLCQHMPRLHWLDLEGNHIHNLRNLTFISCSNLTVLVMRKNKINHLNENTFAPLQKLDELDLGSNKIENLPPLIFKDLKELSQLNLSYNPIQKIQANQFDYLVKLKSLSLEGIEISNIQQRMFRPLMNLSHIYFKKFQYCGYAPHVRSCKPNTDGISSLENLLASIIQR
Briefly: Eu-H2 relaxin competition binding in HEK-7BP cells, BSA free. The note with it: HEK-293T cells stably expressing 7BP, BSA excluded from buffer, mean ± SEM, n in brackets, one-site fit, read-out: HEK-7BP Binding B.S.A. Free Eu-H2 pKi (n) (converted). On the procedure:
3.6. HEK-7BP Binding Assays
HEK-293T cells stably expressing the 7BP protein (HEK-7BP; RXFP1 extracellular domain attached with a single TM domain instead of the native 7 TM domain [30]) were plated in 96-well plates. The medium was aspirated off, and the cells were washed with phosphate-buffered saline (PBS) before competition binding assays were performed with Eu-H2 Relaxin (RXFP1 ligand), as previously described, with the only difference being that BSA was excluded from the binding assay buffer. Competition binding curves for each peptide were performed in triplicate, and each experiment was performed independently at least three times. Fluorescent measurements were carried out on a BMG POLARstar plate reader (BMG Labtech, Melbourne, Australia). Pooled data are presented as mean ± SE of specific binding and are fitted using a one-site binding curve in GraphPad Prism version 8 (GraphPad Inc., San Diego, CA, USA). Statistical analyses were conducted using a one-way analysis of variance with uncorrected Fisher’s least significant difference (LSD) post-hoc analysis in GraphPad Prism version 8.

The nature of data set [2]: In vitro serum stability assay. The format is in vitro ADME, human. The note with it: 37 °C. On the procedure: 3.7. In Vitro Serum Stability Assay
A total of 400 µL of human serum was taken, and 200 µg peptide dissolved in 100 µL of water was added to human serum at 37 °C. A total of 80 µL of samples was removed at various time points (0 min, 30 min, 60 min, 120 min, 240 min, and 480 min), and 160 µL of acetonitrile was added to precipitate plasma proteins. The solution was then centrifuged at 12,000 rpm for 15 min at 4 °C. A total of 200 µL of supernatant was taken out and mixed with 240 µL of milli-Q water, and each sample was analyzed by RP-HPLC (2 × 80 μL injection), by measuring the area under the peak at the appropriate retention time compared to the peak area of the peptide at time zero minute (100%). Data analysis (n = 3, duplicate) was performed using Prism Version 8.0.2, a non-linear-fit one-phase decay model.

The test system of data set [3] is BJ3 human dermal myofibroblasts. Briefly: Myofibroblast differentiation in vitro (α-SMA expression, Western blot). The format is cell-based. On the procedure: 3.8. Determination of the Effects of Lipidated (L)-B7-33 on Myofibroblast Differentiation In Vitro
To determine if the lipidation of B7-33 prolonged its ability to suppress myofibroblast differentiation in vitro, the effects of the native B7-33 peptide vs. lipidated (L)-B7-33 were compared in BJ3 cells, a human dermal fibroblast cell line. BJ3 fibroblasts were used between passages 15–18 and cultured as described before. […] BJ3 cells were plated in 12-well plates at a density of 1–1.25 × 10^5 cells per well and were then either left untreated or stimulated with transforming growth factor (TGF)-β1 (T; 2 ng/mL) alone (to promote myofibroblast differentiation) or with T + B7-33 (100 ng/mL) or T + L-B7-33 (100 ng/mL) for a 14-day period, in media that was left unchanged over this time period. The cells from duplicate wells per treatment group were isolated from plates at 3-, 5-, 7-, 10- and 14-days post-T ± peptide treatment and extracted for protein using the RIPA lysis buffer (ThermoFisher Scientific; Scoresby, Victoria, Australia). These experiments were performed six independent times.
Half the cell protein (in 10 μL of RIPA buffer) from each sample (that was fully reconstituted in 20 μL of RIPA buffer) was loaded and electrophoresed in separate mini-protean 4–15% precast gels, and analyzed by Western blotting using a primary monoclonal antibody to α-SMA (42 kDa; M0851; […]; Agilent Technologies, Santa Clara, CA, USA). The equivalent loading of protein between samples was confirmed using a rabbit monoclonal glyceraldehyde 3-phosphate dehydrogenase (GAPDH) housekeeping antibody (37 kDa; 2118; 1:1000 dilution; Cell Signaling Technology; Danvers, MA, USA). Each membrane was then subjected to appropriate anti-mouse (7076) or anti-rabbit (7074) horseradish peroxidase-conjugated secondary antibodies (both at a 1:2000 dilution; Cell Signaling Technologies), before proteins were detected using the Clarity Western ECL substrate detection kit and quantified by densitometry with a ChemiDoc MP Imaging System and Image Lab v.6.0 software (both from Bio-Rad Laboratories, Hercules, CA, USA).The density of α-SMA from each sample was corrected for GAPDH protein levels and then expressed relative to the ratio that was measured from the unstimulated control group, which was expressed as 1 in each case. Representative blots of α-SMA and GAPDH were also chosen for presentation in each case.
(In general: In western blotting, separated proteins are transferred to a membrane and probed.)

For `CCCCCCCCCCCCCCCC(=O)NCCCC[C@H](NC(=O)[C@H](CCC(=O)O)NC(=O)[C@H](Cc1ccc(O)cc1)NC(=O)[C@@H](N)CCC(=O)O)C(=O)N[C@@H](CCC(=O)O)C(=O)N[C@@H](Cc1ccc(O)cc1)C(=O)N[C@@H](CCC(=O)O)C(=O)NCCOCCOCCOCCOCCOCCOCCC(=O)N[C@H](C(=O)N[C@H](C(=O)N[C@@H](CCCCN)C(=O)N[C@@H](CC(C)C)C(=O)N[C@@H](CO)C(=O)NCC(=O)N[C@@H](CCCNC(=N)N)C(=O)N[C@@H](CCC(=O)O)C(=O)N[C@@H](CC(C)C)C(=O)N[C@H](C(=O)N[C@@H](CCCNC(=N)N)C(=O)N[C@@H](C)C(=O)N[C@@H](CCC(N)=O)C(=O)N[C@H](C(=O)N[C@@H](C)C(=O)N[C@H](C(=O)N[C@@H](CO)C(=O)NCC(=O)N[C@@H](CCSC)C(=O)N[C@@H](CO)C(=O)N[C@H](C(=O)N[C@@H](Cc1c[nH]c2ccccc12)C(=O)N[C@@H](CO)C(=O)N[C@@H](CCCCN)C(=O)N[C@@H](CCCNC(=N)N)C(=O)N[C@@H](CO)C(=O)N[C@@H](CC(C)C)C(N)=O)[C@@H](C)O)[C@@H](C)CC)[C@@H](C)CC)C(C)C)[C@@H](C)CC)C(C)C` [Tag-PEG6-B7-33], the Ki in data set [1] was > 10 µM.

As to `CCCCCCCCCCCCCCCC(=O)N[C@@H](CCC(=O)NCCCC[C@H](NC(C)=O)C(=O)NCCOCCOCCOCCOCCOCCOCCOCCOCCOCCOCCOCCOCCC(=O)N[C@H](C(=O)N[C@H](C(=O)N[C@@H](CCCCN)C(=O)N[C@@H](CC(C)C)C(=O)N[C@@H](CO)C(=O)NCC(=O)N[C@@H](CCCNC(=N)N)C(=O)N[C@@H](CCC(=O)O)C(=O)N[C@@H](CC(C)C)C(=O)N[C@H](C(=O)N[C@@H](CCCNC(=N)N)C(=O)N[C@@H](C)C(=O)N[C@@H](CCC(N)=O)C(=O)N[C@H](C(=O)N[C@@H](C)C(=O)N[C@H](C(=O)N[C@@H](CO)C(=O)NCC(=O)N[C@@H](CCSC)C(=O)N[C@@H](CO)C(=O)N[C@H](C(=O)N[C@@H](Cc1c[nH]c2ccccc12)C(=O)N[C@@H](CO)C(=O)N[C@@H](CCCCN)C(=O)N[C@@H](CCCNC(=N)N)C(=O)N[C@@H](CO)C(=O)N[C@@H](CC(C)C)C(N)=O)[C@@H](C)O)[C@@H](C)CC)[C@@H](C)CC)C(C)C)[C@@H](C)CC)C(C)C)C(=O)O` [Ac K(PalmGlu)-PEG12-B7-33] (Ac-K([γGlu-Palmitoyl])[PEG12]VIKLSGRELVRAQIAISGMSTWSKRSL-NH2), the half-life at 400 µg/mL in data set [2] (human serum 400 µL + 200 µg peptide in 100 µL water, samples 0-480 min, acetonitrile precipitation, RP-HPLC peak area vs time zero, one-phase decay fit, n = 3, duplicate) stood at 1 h. In addition, the “in vitro serum stability, in words” value in data set [2] (human serum, RP-HPLC, n = 3 independent experiments) is recorded as “stable in serum over time”. Also, the “α-SMA expression levels versus T-alone-stimulated cells, in words” value in data set [3] (peptide 100 ng/mL + T 2 ng/mL, after 7–14 days of culture) is recorded as “fully returned to those measured for T-alone-stimulated cells”. Moreover, in data set [3] (peptide 100 ng/mL + T 2 ng/mL, after 5 days, media unchanged, 0.5% FCS), the “α-SMA expression level relative to T-alone-stimulated cells” value is ~ 70%. Also, in data set [3] (peptide 100 ng/mL co-administered with T (2 ng/mL), after 72 h of culture, 0.5% FCS, n = 6 in duplicate), the “suppression of TGF-α-induced increase in α-SMA expression” value is on record as “almost fully suppressed”.

Take `CCCCCCCCCCCCCCCC(=O)NCCCC[C@H](NC(=O)[C@H](CCC(=O)O)NC(=O)[C@H](Cc1ccc(O)cc1)NC(=O)[C@@H](N)CCC(=O)O)C(=O)N[C@@H](CCC(=O)O)C(=O)N[C@@H](Cc1ccc(O)cc1)C(=O)N[C@@H](CCC(=O)O)C(=O)NCCOCCOCCOCCOCCC(=O)N[C@H](C(=O)N[C@H](C(=O)N[C@@H](CCCCN)C(=O)N[C@@H](CC(C)C)C(=O)N[C@@H](CO)C(=O)NCC(=O)N[C@@H](CCCNC(=N)N)C(=O)N[C@@H](CCC(=O)O)C(=O)N[C@@H](CC(C)C)C(=O)N[C@H](C(=O)N[C@@H](CCCNC(=N)N)C(=O)N[C@@H](C)C(=O)N[C@@H](CCC(N)=O)C(=O)N[C@H](C(=O)N[C@@H](C)C(=O)N[C@H](C(=O)N[C@@H](CO)C(=O)NCC(=O)N[C@@H](CCSC)C(=O)N[C@@H](CO)C(=O)N[C@H](C(=O)N[C@@H](Cc1c[nH]c2ccccc12)C(=O)N[C@@H](CO)C(=O)N[C@@H](CCCCN)C(=O)N[C@@H](CCCNC(=N)N)C(=O)N[C@@H](CO)C(=O)N[C@@H](CC(C)C)C(N)=O)[C@@H](C)O)[C@@H](C)CC)[C@@H](C)CC)C(C)C)[C@@H](C)CC)C(C)C` [Tag-PEG4-B7-33]: the Ki in data set [1] was > 10 µM.

As for `CCCCCCCCCCCCCCCC(=O)NCCOCCOCCOCCOCCOCCOCCC(=O)N[C@H](C(=O)N[C@H](C(=O)N[C@@H](CCCCN)C(=O)N[C@@H](CC(C)C)C(=O)N[C@@H](CO)C(=O)NCC(=O)N[C@@H](CCCNC(=N)N)C(=O)N[C@@H](CCC(=O)O)C(=O)N[C@@H](CC(C)C)C(=O)N[C@H](C(=O)N[C@@H](CCCNC(=N)N)C(=O)N[C@@H](C)C(=O)N[C@@H](CCC(N)=O)C(=O)N[C@H](C(=O)N[C@@H](C)C(=O)N[C@H](C(=O)N[C@@H](CO)C(=O)NCC(=O)N[C@@H](CCSC)C(=O)N[C@@H](CO)C(=O)N[C@H](C(=O)N[C@@H](Cc1c[nH]c2ccccc12)C(=O)N[C@@H](CO)C(=O)N[C@@H](CCCCN)C(=O)N[C@@H](CCCNC(=N)N)C(=O)N[C@@H](CO)C(=O)N[C@@H](CC(C)C)C(N)=O)[C@@H](C)O)[C@@H](C)CC)[C@@H](C)CC)C(C)C)[C@@H](C)CC)C(C)C` [Palmitic acid-PEG6-B7-33] ({Palmitoyl-PEG6}-VIKLSGRELVRAQIAISGMSTWSKRSL-NH2), in data set [1], the Ki was > 10 µM.

On to `CCCCCCCCCCCCCCCC(=O)NCCCC[C@H](NC(=O)[C@H](CCC(=O)O)NC(=O)[C@H](Cc1ccc(O)cc1)NC(=O)[C@@H](N)CCC(=O)O)C(=O)N[C@@H](CCC(=O)O)C(=O)N[C@@H](Cc1ccc(O)cc1)C(=O)N[C@@H](CCC(=O)O)C(=O)N[C@H](C(=O)N[C@H](C(=O)N[C@@H](CCCCN)C(=O)N[C@@H](CC(C)C)C(=O)N[C@@H](CO)C(=O)NCC(=O)N[C@@H](CCCNC(=N)N)C(=O)N[C@@H](CCC(=O)O)C(=O)N[C@@H](CC(C)C)C(=O)N[C@H](C(=O)N[C@@H](CCCNC(=N)N)C(=O)N[C@@H](C)C(=O)N[C@@H](CCC(N)=O)C(=O)N[C@H](C(=O)N[C@@H](C)C(=O)N[C@H](C(=O)N[C@@H](CO)C(=O)NCC(=O)N[C@@H](CCSC)C(=O)N[C@@H](CO)C(=O)N[C@H](C(=O)N[C@@H](Cc1c[nH]c2ccccc12)C(=O)N[C@@H](CO)C(=O)N[C@@H](CCCCN)C(=O)N[C@@H](CCCNC(=N)N)C(=O)N[C@@H](CO)C(=O)N[C@@H](CC(C)C)C(N)=O)[C@@H](C)O)[C@@H](C)CC)[C@@H](C)CC)C(C)C)[C@@H](C)CC)C(C)C` [Tag-B7-33] (H-EYEK(Palmitoyl)EYEVIKLSGRELVRAQIAISGMSTWSKRSL-NH2), for which the Ki in data set [1] was > 10 µM.
